In data set [1] the target is N-terminal His-tagged TYK2 pseudokinase domain (Homo sapiens (Human), UniProt P29597). Kind of data set: TYK2 JH2 domain SPA binding assay. Conditions: displacement of H3 probe. As to the method: TYK2 JH2 Domain Binding Assay
After incubating at room temperature for 30 min, the inhibition was calculated by the displacement of [3H] 3 binding as determined by scintillation counting.

Data set [2] deals with IL-23 reporter (JAK2/Tyk2). The data set is described as follows: IL-23 induced STAT3 QUANTI-Blue reporter assay in HEK-Blue IL-23 cells. The format is cell-based. As to the method:
Biological Example 2. IL-23 Induced STAT3 QUANTI-Blue in HEK-Blue™ IL-23 Cells
HEK-Blue™ IL-23 cells were prepared at 2×10^5 cells/ml for adding 5000 cell/well and incubate plates containing compounds+cells for 1 hour at 37° C. Prepare IL-23 (treatment at final conc. 0.1 ng/mL) during incubation and add 2 ul per well of prepared cytokine in media to appropriate wells. The plate was incubated for overnight at 37° C. The next day, QUANTI-Blue solution was prepared. 18 ul of QUANTI-Blue solution per well was added into a new 384-well clear flat bottom plate, followed by addition of 2 ul of induced and treated HEK-Blue cell supernatant from overnight plate. The plate was incubated at 37° C. for 2 hours and SEAP levels determined.
For orientation: A reporter such as luciferase makes a cellular process visible.

Data set [3] can be described thus: Dog PK. The format is in vivo, Beagle dogs. Particulars: beagle, plasma. As to the method:
Biological Example 7. Dog PK
Selected exemplified compounds of the present disclosure were also tested in dog for pharmacokinetic studies. The Beagle dogs were fasted overnight with free access to drinking water prior to treatment. All the dosing solutions were freshly prepared prior to dose administration. In intravenous administration animal group were given a single dose of compound at 1 mg·kg-1. Blood for plasma samples were collected at pre-dose, 5, 15, 30 min, 1, 2, 4, 8, 12 and 24 h through vein into tubes anticoagulated with EDTA-K2. In intragastric administration animal group were given a single dose of compound at 5 mg·kg-1. Blood for plasma samples (˜0.5 mL) were collected at pre-dose, 15, 30 min, 1, 2, 4, 8, 12 and 24 h post-dose through vein into tubes anticoagulated with EDTA-K2. Blood samples were inverted several times and were held on wet ice pending centrifugation. The samples were centrifuged (within 20 minutes of collection) in a centrifuge set at 4° C. for 10 minutes at 1500-1600 g to obtain plasma. Plasma samples were transferred and frozen immediately after separation and stored in a freezer set at below −70° C. prior to analysis.

The test system of data set [4] is IFNγ reporter (JAK1/2). The data set is described as follows: IFN-γ reporter assay in HEK-Dual IFN-γ cells. The format is cell-based. As to the method: IFN-γ reporter assay. Seed HEK-Dual™ IFN-γ Cells (1-3×10^4 cells/well/[…]) to 96 cell plate with DMEM (10% HFBS+1% PS) and incubate overnight at 5% CO2&37° C. Diluent compounds in DMSO. Three times dilution and 10 doses. Add compounds to cell plate and incubate 1 h at 5% CO2&37° C. Add IFN-γ (0.1 ng/mL) to cell plate and incubate overnight at 5% CO2&37° C. Prepare QUANTI-Blue Solution: add 100 μl of QB reagent and 100 μl of QB buffer to 9800 μl sterile water. Use cell supernatant and QUANTI-Blue solution in proportion of 1 to 10, incubate 2 h at 37° C. Read OD630.

Data set [5] deals with IL-2 reporter (JAK1/3). The data set is described as follows: IL-2 reporter assay in HEK-Blue IL-2 cells. The format is cell-based. As to the method: IL-2 reporter assay. Seed HEK-Blue™ IL-2 Cells (1-3×10^4 cells/well/[…]) to 96 cell plate with DMEM (10% HFBS+1% PS) and incubate overnight at 5% CO2&37° C. Diluent compounds in DMSO. Three times dilution and 10 doses. Add compounds to cell plate and incubate 1 h at 5% CO2&37° C. Add IL-2 (1 ng/mL) to cell plate and incubate overnight at 5% CO2&37° C. Prepare QUANTI-Blue Solution: add 100 μl of QB reagent and 100 μl of QB buffer to 9800 μl sterile water. Use cell supernatant and QUANTI-Blue solution in proportion of 1 to 10, incubate 2 h at 37° C. Read OD630.

In data set [6] the target is Jak1 JH2 (Homo sapiens (Human), UniProt P23458). Kind of data set: Jak1 JH2 HTRF binding. Conditions: biochemical assay. Background: In TR-FRET formats the signal depends on donor and acceptor labels being close together.
Sequence of Jak1 JH2 (P23458 583-855): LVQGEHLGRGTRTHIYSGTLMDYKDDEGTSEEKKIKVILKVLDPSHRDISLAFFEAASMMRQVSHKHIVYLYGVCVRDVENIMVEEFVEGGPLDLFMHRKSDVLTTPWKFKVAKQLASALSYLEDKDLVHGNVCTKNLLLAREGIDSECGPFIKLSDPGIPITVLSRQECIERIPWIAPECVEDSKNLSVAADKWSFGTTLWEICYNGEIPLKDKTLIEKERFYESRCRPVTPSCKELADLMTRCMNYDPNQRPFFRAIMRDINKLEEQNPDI
Data set [7] relates to IL-12/IL-18 induced IFN-gamma production. Kind of data set: In vivo inhibition of IL-12/IL-18 induced IFN-gamma. Conditions: mice, oral. As to the method: Biological Example 5. In Vivo Inhibition of IL-12/IL-18 Induced IFN-Gamma
Selected exemplified compounds of the present disclosure (compound Examples 4 and 5) and BMS986165 were dosed orally to female C57BL/6J mice (Charles River). One hour later, 0.05 μg of recombinant rat IL-12 was administered IV. Another hour later following IL-12 administration, 1 μg of recombinant rat IL-18 was administered IV. Three hours later, blood was collected and serum were obtained by centrifugation for analysis of IFNγ by ELISA.

The test system of data set [8] is IFNα/β reporter (JAK1/Tyk2). Kind of data set: IFN-alpha/beta reporter assay in HEK-Blue IFN-a/b cells. The format is cell-based. Particulars: cellular assay. As to the method: IFN-alpha/beta reporter assay. Seed HEK-Blue™ IFN-a/b cells (1-3×10^4 cells/well/[…]) to 96 cell plate with DMEM (10% HFBS+1% PS) and incubate overnight at 5% CO2&37° C. Diluent compounds in DMSO. Three times dilution and 10 doses. Add compounds to cell plate and incubate 1 h at 5% CO2&37° C. Add IFN-alpha/beta (5 U/ml) to cell plate and incubate overnight at 5% CO2&37° C. Prepare QUANTI-Blue Solution: add 100 μl of QB reagent and 100 μl of QB buffer to 9800 μl sterile water. Use cell supernatant and QUANTI-Blue solution in proportion of 1 to 10, incubate 2 h at 37° C. Read OD630.

Data set [9] concerns IL-23-induced psoriasis. The data set is described as follows: In vivo mouse psoriasis model induced by human IL-23. Conditions: mice, 7.5, 15 and 30 mg/kg BID oral gavage. As to the method:
Biological Example 6. In Vivo Mouse Psoriasis Model Selected exemplified compounds of the present disclosure were also tested in a mouse psoriasis model induced by human IL-23. Psoriasis was induced in 6-8-week-old C57BL/6J female mice (Charles River) by intradermal injection of recombinant human IL-23 into the left ear. IL-23 injections were administered every other day from day 1 through day 9 of the study. Selected compounds at 7.5, 15, and 30 mg/kg, with 15 mg/kg BMS986165 as positive control were dosed BID by oral gavage, with the first dose given the evening before first IL-23 injection. Ear thickness was measured every other day, prior to the ear injection.

Where [10] appears, read: HEK-Blue IL-23 cells, Table 2, read-out: IL23 reporter assay_IC50.
[11] abbreviates: cellular assay, read-out: IFNγ reporter assay (JAK1/2) IC50.
Setting [12] is: HEK-Blue, cellular assay, read-out: IL-2 reporter assay (JAK1/3) IC50.
Where [13] appears, read: HEK-Blue IL-23, cellular assay, Table 3 and text, read-out: IL-23 reporter assay (JAK2/Tyk2) IC50.

Like-named read-outs stand apart in the source and are kept apart here.

In general, Cmax refers to the maximum level reached in the sampled fluid or tissue.

Sequence of N-terminal His-tagged TYK2 pseudokinase domain (P29597 589-875): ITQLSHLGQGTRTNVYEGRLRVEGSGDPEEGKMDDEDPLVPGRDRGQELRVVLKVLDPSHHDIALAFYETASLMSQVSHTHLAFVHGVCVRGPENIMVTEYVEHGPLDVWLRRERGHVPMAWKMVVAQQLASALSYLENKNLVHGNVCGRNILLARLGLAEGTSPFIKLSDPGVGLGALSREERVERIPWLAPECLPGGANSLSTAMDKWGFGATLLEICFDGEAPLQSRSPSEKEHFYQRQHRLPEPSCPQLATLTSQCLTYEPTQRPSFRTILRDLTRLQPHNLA

On to `[2H]C([2H])([2H])NC(=O)c1cnc(NC(=O)C2CC2)cc1Nc1cccc(C(=O)NCc2ccc(NC(=O)C=C)cn2)c1OC` [Example 1, 4-((3-(((5-acrylamidopyridin-2-yl)methyl)carbamoyl)-2-methoxyphenyl)amino)-6-(cyclopropanecarboxamido)-N-(methyl-d3)nicotinamide], for which the IC50 in [1] came out at 27 nM; in data set [2] (setting [10]) it was 318 nM.
For `[2H]C([2H])([2H])NC(=O)c1nnc(NC(=O)C2CC2)cc1Nc1cccc(-c2ncn(C)n2)c1OC` [BMS-986165, reference compound], the AUC(0-t) stood at 3.8 µM·h in data set [3] (intravenous, 1 mg/kg single dose, read-out: AUC0-t (IV)) and 22.3 µM·h in data set [3] (po, intragastric, 5 mg/kg single dose, read-out: AUC0-t (PO)). In addition, the Cmax in [3] (po, intragastric, 5 mg/kg single dose) was found to be 2700 nM. For the same compound, the IC50 was 1090 nM in [4] (setting [11]); 221 nM in [5] (setting [12]); 221 nM in data set [5] (cellular assay, read-out: IL-2 reporter assay (JAK1/3) IC50); 3.5 nM in data set [2] (setting [13]); 3.76 nM in data set [2] (setting [10]).
For `[2H]C([2H])([2H])NC(=O)c1nnc(NC(=O)C2CC2)cc1Nc1cc(F)cc(-n2cnc(C)n2)c1OC` [Example 12], in [2] (setting [10]), the IC50 was found to be 15 nM.
Consider `[2H]C([2H])([2H])NC(=O)c1nnc(NC(=O)C2CC2)cc1Nc1cccc(-c2cc(=O)n(C3CC3)cn2)c1OC` [Example 4, 6-(cyclopropanecarboxamido)-4-((3-(1-cyclopropyl-6-oxo-1,6-dihydropyrimidin-4-yl)-2-methoxyphenyl)amino)-N-(methyl-d3)pyridazine-3-carboxamide], for which the IC50 was over 10000 nM in [4] (setting [11]); over 10000 nM in data set [4] (read-out: IC50 in IFN-gamma reporter assay (JAK1/2)); 4.99 nM in [6]; 696 nM in data set [5] (setting [12]); over 10000 nM in [5] (HEK-Blue, read-out: IC50 in IL-2 reporter assay (JAK1/3)); about 4 nM in data set [8] (HEK-Blue). Also, the IC50 was 3.7 nM in data set [8]; 18 nM in data set [2] (HEK-Blue IL-23, HEK-Blue IL-23 cells, Table 2, read-out: IL23 reporter assay_IC50); about 18 nM in data set [2] (setting [13]); 18.3 nM in data set [2] (cellular assay, Table 3 and text, read-out: IL-23 reporter assay (JAK2/Tyk2) IC50). Further, the “inhibition of IFNγ production” value in data set [7] (2.5 mpk) turned out to be 52.7%; in data set [7] (5 mpk), 76.0%; in data set [7] (7.5 mpk) it was 88.6%. In addition, the “inhibition of IFNγ production (reduction compared to vehicle treated group)” value in [7] (10 mpk) stood at 93.3%. The “protection from IL-23-induced psoriasis (ear thickness), result in words” value in data set [9] is “dose-dependently protect mice from IL-23-induced psoriasis”.
On to `[2H]C([2H])([2H])NC(=O)c1nnc(NC(=O)C2CC2)cc1Nc1cc(F)cc(C2=NC3(CC3)C(=O)N2)c1OC` [Example 9], for which, in [2] (setting [10]), the IC50 is 318 nM.
As for `[2H]C([2H])([2H])NC(=O)c1cnc(NC(=O)C2CC2)cc1Nc1cccc(-c2cc(=O)n(C3CC3)cn2)c1OC` [Example 3, 6-(cyclopropanecarboxamido)-4-((3-(1-cyclopropyl-6-oxo-1,6-dihydropyrimidin-4-yl)-2-methoxyphenyl)amino)-N-(methyl-d3)nicotinamide], the IC50 was 16.1 nM in data set [1] and 6.5 nM in [2] (setting [10]).
As for `[2H]C([2H])([2H])NC(=O)c1nnc(NC(=O)C2CC2)cc1Nc1cc(F)cc(-n2ncc(C)n2)c1OC` [Example 14], the IC50 in [2] (setting [10]) was found to be 71 nM.
As for `[2H]C([2H])([2H])NC(=O)c1cnc(NC(=O)C2CC2)cc1Nc1cccc(C(=O)NCc2ccc(NC(=O)CCl)cn2)c1OC` [Example 2, 4-((3-(((5-(2-chloroacetamido)pyridin-2-yl)methyl)carbamoyl)-2-methoxyphenyl)amino)-6-(cyclopropanecarboxamido)-N-(methyl-d3)nicotinamide], the IC50 in data set [1] was determined as 5.56 nM; in [2] (setting [10]), 15.7 nM.
For `[2H]C([2H])([2H])NC(=O)c1cnc(NC(=O)C2CC2)cc1Nc1cc(F)cc(-c2cc(=O)n(C3CC3)cn2)c1OC` [Example 6], in that order: 30 nM and 18 nM.
Regarding `[2H]C([2H])([2H])NC(=O)c1nnc(NC(=O)C2CC2)cc1Nc1cccc(C2=NC3(CC3)C(=O)N2)c1OC` [Example 10], the IC50 in [2] (setting [10]) is 74 nM.
Still for that read-out and setting: under `[2H]C([2H])([2H])NC(=O)c1nnc(NC(=O)C2CC2)cc1Nc1cccc(-n2ncc(C)n2)c1OC` [Example 13] stands 38 nM.
Still for that read-out and setting: as for `[2H]C([2H])([2H])NC(=O)c1cnc(NC(=O)C2CC2)cc1Nc1cccc(C2=NC3(CC3)C(=O)N2)c1OC` [Example 11], the figure is 111 nM; as for `[2H]C([2H])([2H])NC(=O)c1nnc(NC(=O)C2CC2)cc1Nc1cccc(-c2nc(=O)n(C)[nH]2)c1OC` [Example 15], 25 nM.

The values are drawn from patent US20240246944A1, “AMINO HETEROARYL COMPOUNDS AND COMPOSITIONS” (Anrui Biomedical Technology (Guangzhou) Co., Ltd., priority 2021, published 2024).
